Experiments:
[1] = Example 2: AGE formation from F-lysine (model glycosylated protein; absorbance at 420 nm) and F-lysine decomposition (HPLC); format: biochemical
Description: The organogermanium compound (1-1) was added to a phosphate buffer solution containing 10 mM of Nα-t-butoxycarbonyl-Nε-fructose-L-lysine(hereinafter abbreviated to F-lysine) as a model glycosylated protein, so that the final concentration became 0, 1, 5, 10 or 50 mM. Then, incubation was conducted at 40° C. for 15 days, after which the formation of AGE was measured by browning degree (absorbance at 420 nm) and the amount of F-lysine decomposed was measured by HPLC to examine the effect of the organogermanium compound (1-1) added.

proteins in plasma = experiment: Example 4: glycation of plasma proteins in Streptozocin-diabetic rats; format: in vivo, Sprague-Dawley female rats; details: 100 mg per kg, oral in drinking water
Description: (§1) Streptozocin was intravenously injected into Sprague-Dawley female rats (total 21 rats each weighing 240-270 g) in an amount of 65 mg per kg of body weight to cause diabetes. Then, the rats were divided into two groups, i.e. a control group and an administered group. An organogermanium compound (1-1) was put into drinking water and orally administered to the administered group at night in an amount of 100 mg per kg of body weight.
4, 8 and 14 weeks after the administration of the organogermanium compound (1-1), blood sampling was made from all the rats of the two groups in hungry state. Each blood taken was measured for blood sugar, glucohemoglobin (hereinafter abbreviated to GHb), glycated albumin (hereinafter abbreviated to GA) and Fructosamine (hereinafter abbreviated to Fru). GHb was measured by affinity chromatography using a mini column, and GA was measured by HPLC using two different columns. The body weight, amount of water taken and amount of food taken, of each rat were also recorded simultaneously.

[2] = Example 5: general observations in Streptozocin-diabetic rats (blood sugar, body weight, water, food); format: in vivo, Sprague-Dawley female rats; details: 100 mg per kg, oral in drinking water; 4, 8 and 14 weeks; vs control group
Description: as §1
Incidentally, during the test period, i.e. 4, 8 and 14 weeks after the administration of the organogermanium compound (1-1), there was no difference in blood sugar in hungry state, body weight, amount of water taken and amount of food taken, between the two groups.

[3] = Example 3: decomposition of Amadori rearrangement product formed from ribose and alginine (HPLC); format: biochemical; details: 40 mM solution mixed 1:1; 37° C., 24 hours, pH 7.4 (FIG. 6)
Description: 20 mg of ribose, 20 mg of alginine and 10 ml of methanol were reacted under refluxing, in a hot bath of 60°-70° C. 10-15 minutes later, 0.1-0.3 ml of acetic acid was added and the reaction was continued for a further 5-10 minutes. Then, the reaction mixture was concentrated under reduced pressure. During the concentration, a small amount of water was added to remove acetic acid. The concentrate was dissolved in 1 ml of water and the solution was subjected to HPLC to collect an Amadori rearrangement product. The product was freeze-dried.
The freeze-dried product of the Amadori rearrangement product was suspended in 4 ml of a sodium phosphate buffer solution (pH 7.4, 0.1M). The suspension was mixed with a sodium phosphate buffer solution containing or not containing 40 mM of the organogermanium compound (1-1), at a 1:1 ratio. The mixture was incubated at 37° C. for 24 hours. Sampling of 0.1 ml was conducted with the lapse of time for immediate analysis by HPLC. When immediate analysis was impossible, the sample was freeze-storedat -20° C.

rats = experiment: Acute oral toxicity in rats (LD50); format: in vivo; details: oral administration
Description: (§2) The organogermanium compound (1) used in the present agent has very low toxicity. In the case of oral administration of the compound (1-1), the LD50 is 6 g or more for mice and 10 g or more for rats.

Fructosamine in serum = experiment: Example 6: serum Fructosamine in diabetes patients; format: in vivo, human (diabetes patients); details: 750 mg/day for 2 months; 20 diabetes patients (FIG. 11)
Description: An organogermanium compound (1-1) was administered to 20 diabetes patients (they were diagnosed as diabetes by a 75-g grape sugar loading test) at a dose of 750 mg/day for 2 months. Fructosamine content in serum of each patient was measured before and after the administration.
Fructosamine content in serum was measured by an ordinary method, i.e. by adding a test sample or a reference (a standard Amadori rearrangement product) to a NTB solution, subjecting the mixture to incubation at 37° C., and measuring the developed color.

abdomen skin collagen = experiment: Example 5: fluorescence of abdomen skin collagen in Streptozocin-diabetic rats; format: in vivo, Sprague-Dawley female rats; details: 100 mg per kg, oral in drinking water; 14 weeks
Description: as §1
(§3) 14 weeks after the administration of the organogermanium compound (1-1), all the rats were killed to collect the skin of abdomen and the tendon of tail. Collagen was extracted from each skin and each tendon and treated with collagenase for solubilization. Each of the solubilized collagens was measured for fluorescence at an excitation wavelength of 370 nm and an absorption wave length of 440 nm. At the same time, hydroxyproline was measured by HPLC; a collagen amount was calculated; and the adjustment of fluorescent intensity was made using the value.

mice = experiment: Acute oral toxicity in mice (LD50); format: in vivo; details: oral administration
Description: as §2

tail tendon collagen = experiment: Example 5: fluorescence of tail tendon collagen in Streptozocin-diabetic rats; format: in vivo, Sprague-Dawley female rats; details: 100 mg per kg, oral in drinking water; 14 weeks
Description: as §1, §3

[4] = Example 1: Mailard reaction of Nα-t-Boc-lysine (model protein) with glucose; AGE formation (absorbance at 420 nm) and Nα-t-Boc-lysine consumption (HPLC); format: biochemical; details: 40° C.
Description: The organogermanium compound (1-1) was added to a phosphate buffer solution (50 mM, pH 7.4) containing 50 mM of Nα-t-butoxycarbonyl-L-lysine (hereinafter abbreviated to Nα-t-Boc-lysine) as a model protein and 1M of glucose, so that the final concentration became 0, 1, 5 or 10 mM. Then, incubation was conducted at 40° C. for 15 days, after which the formation of AGE was measured by browning degree (absorbance at 420 nm) and the amount of Nα-t-Boc-lysine consumed was measured by high-performance liquid chromatography (hereinafter abbreviated to HPLC) to examine the effect of the organogermanium compound (1-1) added.

Structure (SMILES): N=C(N)NN [aminoguanidine, reference compound]
- effect in the test of Example 2 (AGE formation and F-lysine consumption) ([1]; compared with compound (1-1), used in its place): substantially no effect

Structure (SMILES): O=C(O)C[CH2][Ge](=[O])[O][Ge](=[O])[CH2]CC(=O)O [compound (1-1)]
- Fru (Fructosamine) vs control group (proteins in plasma; 8 weeks (FIG. 8)): significantly lower in the administered group
- GA (glycated albumin) vs control group (proteins in plasma; 14 weeks): significantly lower in the administered group
- Fru (Fructosamine) difference vs control group (proteins in plasma; 14 weeks, compared with 8 weeks): the difference was more significant in 14 weeks
- body weight, amount of water taken and amount of food taken (proteins in plasma; test period, vs control group): no difference
- GHb (glucohemoglobin) (proteins in plasma; vs control group): lower in the administered group
- blood sugar in hungry state (proteins in plasma; vs control group): no difference
- blood sugar in hungry state [2]: no difference
- body weight, amount of water taken and amount of food taken [2]: no difference
- alginine increase and unidentified substance peak increase [3]: substantially seen neither alginine increase nor unidentified substance peak increase
- decrease of the Amadori rearrangement product [3]: very mild
- LD50 (rats): ≥ 10 g
- consumption of F-lysine (suppressed to) ([1]; 50 mM, 40° C., 15 days, HPLC (FIG. 4)): about 20%
- consumption of F-lysine ([1]; 5-50 mM, 40° C., 15 days, HPLC (FIG. 4)): suppressed the consumption of F-lysine
- suppression of the formation of AGE ([1]; 5-50 mM, 40° C., 15 days, absorbance at 420 nm (FIG. 3)): suppressed the formation of AGE substantially completely
- Fructosamine content in serum after vs before administration (Fructosamine in serum): lower after the administration
- fluorescence of skin collagen vs control group (abdomen skin collagen): significantly lower
- LD50 (mice): ≥ 6 g
- fluorescence of tendon collagen vs control group (tail tendon collagen): significantly lower
- suppression of the formation of AGE, concentration dependence ([4]; 0, 1, 5 or 10 mM, 15 days (FIG. 1)): suppressed the formation of AGE dependently upon the concentration
- consumption of Nα-t-Boc-lysine (suppressed to) ([4]; 10 mM, 15 days, HPLC (FIG. 2)): about 10%
- suppression of the formation of AGE ([4]; 5-10 mM, 15 days, pH 7.4, absorbance at 420 nm (FIG. 1)): suppressed the formation substantially completely

— patent US5352815A, “Agent for suppression and interception of mailard reaction” (Asai Germanium Research Institute Co., Ltd., priority 1992, dated 1994)
